{"source": "patent US20150072020A1", "about": "“Dexanabinol or a Derivative Thereof for Use in the Treatment of Cancer in Dose Ranges of 2-30 mg/kg” (E-THERAPEUTICS PLC, priority 2012, published 2015)", "key": {"CDK5": {"target": "CDK5 (Homo sapiens, UniProt Q00535)", "sequence (Q00535 whole entry, species assumed)": "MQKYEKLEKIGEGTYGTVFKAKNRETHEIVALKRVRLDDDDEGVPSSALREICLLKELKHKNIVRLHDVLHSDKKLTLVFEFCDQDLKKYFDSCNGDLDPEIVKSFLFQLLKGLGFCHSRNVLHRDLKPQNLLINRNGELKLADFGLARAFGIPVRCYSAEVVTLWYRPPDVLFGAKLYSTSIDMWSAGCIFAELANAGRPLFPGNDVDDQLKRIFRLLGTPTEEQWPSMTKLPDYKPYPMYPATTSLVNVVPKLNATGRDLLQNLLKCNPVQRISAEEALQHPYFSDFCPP", "sequence (Q15078 99-307 partner limits assumed, species assumed)": "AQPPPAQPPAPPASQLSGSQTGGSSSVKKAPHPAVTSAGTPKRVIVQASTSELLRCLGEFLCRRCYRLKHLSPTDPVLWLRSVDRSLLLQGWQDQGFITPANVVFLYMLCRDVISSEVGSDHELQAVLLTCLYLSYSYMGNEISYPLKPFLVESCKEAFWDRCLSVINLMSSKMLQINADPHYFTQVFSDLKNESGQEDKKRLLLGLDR", "assay": "direct assay of dexanabinol against CDK5", "assay_type": "biochemical", "conditions": "when directly assayed; heading names CDK5/p25", "text": "(§1) However, we believe that CDKs are affected indirectly, in circumstances where more of the intracellular network that might mediate such effects remains present."}, "CDK2": {"target": "CDK2 (Homo sapiens, UniProt P24941)", "assay": "direct assay of dexanabinol against CDK2", "assay_type": "biochemical", "conditions": "when directly assayed; heading names CDK2/A", "text": "as §1"}}, "data": [{"compound": "CCCCCCC(C)(C)c1cc(O)c2c(c1)OC(C)(C)[C@H]1CC=C(CO)C[C@H]21", "note": "[Dexanabinol, 1, 1 dimethyl heptyl-(3S, 4S)-7-hydroxy-Δ^6-tetrahydrocannabinol]", "values": [{"measurement": "direct activity against CDK5", "setting": "CDK5", "value": "no significant direct activity"}, {"measurement": "direct activity against CDK2", "setting": "CDK2", "value": "no significant direct activity"}]}]}
